Assay [1] deals with High affinity 3',5'-cyclic-AMP phosphodiesterase 7A (Homo sapiens, UniProt Q13946). Kind of assay: Inhibition of human recombinant PDE7A expressed in Sf9 insect cells using FAM-cAMP as substrate preincubated for 15 mins followed by substrate addition and measured after 30 mins by spectrofluorimetry.
The next assay deals with Soleus muscle. As to the kind of experiment: Protection against 12.5 mM KCl-induced loss of contractile force in Sprague-Dawley rat soleus muscle assessed as mean residual contractile force at 1 uM pretreated for 10 mins followed by KCl stimulation at 5 mins interval for 30 mins and measured in presence of salbutamol by isometric force transducer method relative to control. The assay is classed as functional. The conditions noted are these: time 40 min.

In assay [2] the target is 3',5'-cyclic-AMP phosphodiesterase 7B (Homo sapiens, UniProt Q9NP56). Kind of assay: Inhibition of human recombinant PDE7B expressed in Sf9 insect cells using FAM-cAMP as substrate preincubated for 15 mins followed by substrate addition and measured after 30 mins by spectrofluorimetry.
3',5'-cyclic-AMP phosphodiesterase 7B, sequence (Q9NP56 whole entry): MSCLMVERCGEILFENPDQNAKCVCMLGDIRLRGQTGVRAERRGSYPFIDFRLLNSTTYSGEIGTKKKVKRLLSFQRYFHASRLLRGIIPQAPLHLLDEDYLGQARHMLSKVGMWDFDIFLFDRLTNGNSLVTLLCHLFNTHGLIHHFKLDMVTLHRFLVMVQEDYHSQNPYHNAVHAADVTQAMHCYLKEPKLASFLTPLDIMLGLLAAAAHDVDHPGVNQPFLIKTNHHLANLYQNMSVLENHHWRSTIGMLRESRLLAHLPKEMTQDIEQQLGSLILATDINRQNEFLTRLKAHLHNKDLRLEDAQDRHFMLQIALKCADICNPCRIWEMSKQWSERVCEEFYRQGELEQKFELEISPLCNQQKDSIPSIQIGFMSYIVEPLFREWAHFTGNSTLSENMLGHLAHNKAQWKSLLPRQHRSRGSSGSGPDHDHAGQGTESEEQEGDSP

High affinity 3',5'-cyclic-AMP phosphodiesterase 7A, sequence (Q13946 whole entry): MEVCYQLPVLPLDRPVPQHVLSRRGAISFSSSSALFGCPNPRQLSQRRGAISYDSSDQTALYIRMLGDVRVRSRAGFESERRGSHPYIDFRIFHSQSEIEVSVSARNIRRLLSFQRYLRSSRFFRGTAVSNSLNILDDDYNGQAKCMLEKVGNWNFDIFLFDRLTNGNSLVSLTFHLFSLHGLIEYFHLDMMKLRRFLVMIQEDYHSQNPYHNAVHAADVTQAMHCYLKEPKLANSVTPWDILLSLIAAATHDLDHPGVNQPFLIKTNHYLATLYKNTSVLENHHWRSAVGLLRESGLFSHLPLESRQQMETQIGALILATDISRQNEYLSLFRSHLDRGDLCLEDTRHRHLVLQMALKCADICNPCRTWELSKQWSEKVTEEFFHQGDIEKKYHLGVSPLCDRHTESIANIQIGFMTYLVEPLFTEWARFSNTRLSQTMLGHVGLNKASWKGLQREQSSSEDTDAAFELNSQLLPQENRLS

What is called IC50 is the point on the concentration scale where inhibition reaches its midpoint. With `CN(C)C1CCN(C(=O)c2cc3cc(Cl)c4c(c3o2)C2(CCCCC2)NC(=O)N4)CC1`, the IC50 in assay [1] is 28 nM; in assay [2] it was 58 nM. Further, in the assay with Soleus muscle, the Activity is given as 73.7%.

Take `CN(C)C(=O)CNCc1nc2cc(Cl)c3c(c2o1)C1(CCCCC1)NC(=O)N3`: the IC50 in assay [1] is 5.57 nM. Moreover, the Activity with Soleus muscle was 60.5%.

The values are drawn from ChEMBL document CHEMBL6103661, “Identification of Phosphodiesterase-7 Inhibitors with Spiro[[1,3]oxazolo[5,4-f]quinazoline-9,1'-cyclohexan]-7-one Scaffold for the Treatment of Chronic Fatigue” (ACS Med Chem Lett, 2025).
